Measurements from patent publication US9790496B2, “Microrna compounds and methods for modulating MIR-21 activity” (Regulus Therapeutics, Inc., priority 2011, dated 2017).
Where “and” joins values, the source holds several entries; their conditions need not be identical. Identical values can stand only once. Entries after “also recorded” stand apart in the source; their conditions may differ.

Experiments:
[1] = Ex vivo liver homogenate stability assay (HPLC-TOF MS); conditions: 5 μM in liver homogenate (50 mg tissue per ml), 24 hours at 37° C.
[2] = In vivo stability: compound in kidney tissue after administration to mice; conditions: mice; by 7 days post-injection
[3] = system: unilateral ureteral obstruction (UUO) model of fibrosis; experiment: UUO model: collagen area fraction of kidney tissue (picrosirius red histology); assay type: in vivo, mice; conditions: UUO comparison study, 25070 20 mg/kg s.c., irbesartan PO
Description: Control treatment groups included UUO only (sham) and UUO with PBS administered subcutaneously. An additional control group included UUO with Tween-MC/20 carrier perorally. 25070 administered subcutaneously at dose of 20 mg/kg at 5 days prior to, 2 days prior to, and 3 days after, the UUO procedure. Irbesartan was administered perorally on daily on days 0 through 7 following the UUO procedure. Animals were sacrificed on Day 10 following the UUO procedure. Kidney tissue was collected for measurement of collagen 1A1 and collagen 3A1 expression.
The ‘collagen area fraction’ is measured histologically through quantitative image processing of the area of kidney tissue that is stained red by the picrosirius red stain; the percent detected as red is normalized by the area of kidney section.

[4] = system: collagen 1A1 and collagen 3A1 expression in kidney, ischemia reperfusion injury (IRI) model; experiment: Unilateral ischemia reperfusion injury (IRI) model: kidney collagen 1A1 and collagen 3A1 expression; assay type: in vivo, mouse; conditions: 14 day study, dosing Day 5, 6, 7, fold change relative to sham
miR-21 = miR-21 luciferase sensor assay in Hela cells; assay type: cell-based
[5] = system: ischemia reperfusion injury/nephrectomy (IR/Nx) model; experiment: Ischemia reperfusion injury/nephrectomy (IR/Nx) model: urinary albumin to creatinine ratio; assay type: in vivo, mouse
Text: An ischemia reperfusion injury/nephrectomy (IR/Nx) model is created in the mouse through temporary unilateral clamping of an artery in one kidney, which leads to tubule damage, inflammation, and fibrosis, followed by removal of the second kidney at a later timepoint. In this model, the acute kidney dysfunction phase is useful to test candidate agents for the treatment of acute kidney injury (i.e. up to about the first 5 days), and the later phases of kidney dysfunction are useful to model chronic fibrosis (i.e. after about the first 5 days).
Anti-miR-21 compounds were tested in the IR/Nx model. 25109, a 6-base mismatch to miR-21, was used as a control compound ([…]; where nucleosides not followed by a subscript indicate β-deoxynucleosides; nucleosides followed by a subscript “E” indicate 2′-MOE nucleosides; nucleosides followed by a subscript “S” indicate S-cEt nucleosides; and all internucleoside linkages are phosphorothioate internucleoside linkages).
Unilateral IR was induced for a period of 30 minutes. Treatment groups were as follows: sham IR procedure; IR with PBS administered subcutaneously; IR with mismatched control 25109 administered subcutaneously at a dose of 20 mg/kg; IR with anti-miR-21 compound 25070 administered subcutaneously at a dose of 20 mg/kg; and IR with anti-miR-21 compound 25923 administered subcutaneously at a dose of 20 mg/kg. PBS or anti-miR was administered on days 2, 3, 4, and 8 following IR. On day 8, the healthy kidney was removed by nephrectomy from each animal, and animals were sacrificed on day 9. Just prior to sacrifice, urine was collected by direct bladder puncture.
Urinary albumin to creatinine ratio was measured in the urine from each mouse. […] The geometric mean of the albumin to creatinine ratio in each group of mice was 16 μgAlb/mgCr (nephrectomy-only control), 127 μgAlb/mgCr (IR/Nx, PBS control), 140 μgAlb/mgCr (IR/Nx, 25109 control), 40 μgAlb/mgCr (IR/Nx, 25070), and 31 μgAlb/mgCr (IR/Nx, 25923). Blood urea nitrogen and serum creatinine levels were similar across all IR/Nx mice, and were elevated relative to nephrectomy-only control mice (data not shown).

Sequence: AECSATCSAGTCSTGAUSAAGCSTAE (ACATCAGTCTGATAAGCTA; modified nucleosides coded in name, code key not given here) [Compound 25070]
- compound lacking the 3'-terminal nucleoside [1]: about 27%
- compound present as the full-length compound [1]: about 58%
- compound present in kidney tissue lacking the 3'-terminal nucleoside [2]: about 50%
- Collagen Area Fraction (%), Mean ([3]; group mean): 8.0%
- Collagen Area Fraction (%), individual animal ([3]; sacrifice Day 10, 20 mg/kg): 7.632% and 9.937% and 8.015% and 6.611% and 6.319% and 11.272% and 6.803% and 7.405%
- Collagen 1A1 (Normalized Expression), individual animal [4]: 21.7 and 22.8 and 15.8 and 27.6 and 27.1 and 29.3 and 10.8 and 21.5 and 29.9 and 35.0 and 28.3 and 24.2
- Collagen 3A1 (Normalized Expression), individual animal [4]: 24.9 and 26.3 and 13.6 and 25.4 and 32.7 and 29.9 and 9.7 and 22.2 and 33.2 and 35.4 and 32.3 and 28.9
- luciferase value normalized to beta-galactosidase activity (miR-21; 4 nM oligonucleotide, Hela cells, mock transfection 50): 99
- luciferase value normalized to beta-galactosidase activity (miR-21; .16 nM oligonucleotide, Hela cells, mock transfection 45): 65
- luciferase value normalized to beta-galactosidase activity (miR-21; .8 nM oligonucleotide, Hela cells, mock transfection 33): 87
- inhibition of miR-21 in the luciferase assay (in words) (miR-21; Hela cells): demonstrated inhibition of miR-21 in a dose-dependent manner; also recorded: potent inhibitor of miR-21 activity
- fold change in luciferase value relative to the mock treatment (miR-21; concentration of anti-miR compound 0.2 (unit not given)): 1.04
- fold change in luciferase value relative to the mock treatment (miR-21; concentration of anti-miR compound 0.6 (unit not given)): 1.01
- fold change in luciferase value relative to the mock treatment (miR-21; concentration of anti-miR compound 1.9 (unit not given)): 1.14
- fold change in luciferase value relative to the mock treatment (miR-21; concentration of anti-miR compound 5.6 (unit not given)): 6.22
- fold change in luciferase value relative to the mock treatment (miR-21; concentration of anti-miR compound 16.7 (unit not given)): 11.28
- fold change in luciferase value relative to the mock treatment (miR-21; concentration of anti-miR compound 50.0 (unit not given)): 11.00
- reduction in urinary albumin to creatinine ratio (in words) ([5]; s.c. 20 mg/kg on days 2, 3, 4, 8): statistically significant reductions
- geometric mean of the urinary albumin to creatinine ratio ([5]; s.c. 20 mg/kg on days 2, 3, 4, 8, urine day 9, PBS control 127, nephrectomy-only 16): 40 μgAlb/mgCr
